Reference: patent US20140158233A1, “AEROSOL DELIVERY TO A MICROFLUIDIC DEVICE” (PRESIDENT AND FELLOWS OF HARVARD COLLEGE, priority 2011, published 2014)

Test system: human alveolar epithelial cells (A549)
Assay: Aerosol delivery of a model agent to cells in a lung-on-a-chip (cell uptake, time-course fluorescence images)
Format: cell-based
Details: 50 micromolar fluorescein sodium in isotonic PBS, nebulized droplets, flow ~20 mL/hr into top channel; confluent A549 monolayer at air interface; images 0-10 min (FIGS. 14A-14D)
Source text: In accordance with some embodiments described herein, an agent can be aerosolized and directed to a microfluidic channel for delivery of the agent to a cell. In some embodiments, the microfluidic channel can be present in a lung-on-a-chip device as described earlier. By way of example only, to evaluate efficacy of aerosol delivery to and/or deposition on a cell using one or more embodiments of the aerosol delivery device described herein, a monolayer of human alveolar epithelial cells (A549) was grown to confluence on the top side of a porous membrane of the lung-on-a-chip, for example, the one described in the International Patent Application WO 2010/009307, the content of which is incorporated herein by reference. In some embodiments, no cells were seeded on the bottom side of the membrane. […] In some embodiments, at least the top channel inlet port 1310 of the lung-on-a-chip 1300 can be modified to include an inertial impactor as described herein. […] The microchannel 142 (in fluid communication with the chamber 150) and the porous membrane 160 can be directly or indirectly connected to the top channel 1320 and the porous membrane 1340 of the lung-on-a-chip 1300. […]

## O=C1OC2(c3ccc(O)cc3Oc3cc(O)ccc32)c2ccccc21 [fluorescein, fluorescein sodium]
  cell uptake of aerosolized fluorescein after deposition on the cells: taken up by the cells
